Measured values taken from ChEMBL document CHEMBL1151757, “Synthesis, radiosynthesis, and biological evaluation of fluorine-18-labeled 2beta-carbo(fluoroalkoxy)-3beta-(3'-((Z)-2-haloethenyl)phenyl)nortropanes: candidate radioligands for in vivo imaging of the serotonin transporter with positron emission tomography” (J Med Chem, 2008).

Assays:
[1] = Drug uptake in awake rhesus monkey brain frontal lobe after 13.5 mins postinjection; type: ADME, organism-based, Macaca mulatta; conditions: in vivo, 0.225 h
[2] = Drug uptake in awake rhesus monkey brain frontal lobe after 25 mins postinjection; type: ADME, organism-based, Macaca mulatta; conditions: in vivo
[3] = Drug uptake in awake rhesus monkey brain frontal lobe after 65 mins postinjection; type: ADME, organism-based, Macaca mulatta; conditions: in vivo
[4] = Drug uptake in awake rhesus monkey brain medulla after 10.5 mins postinjection; type: ADME, organism-based, Macaca mulatta; conditions: in vivo, 0.175 h
[5] = Drug uptake in awake rhesus monkey brain medulla after 55 mins postinjection; type: ADME, organism-based, Macaca mulatta; conditions: in vivo
[6] = Drug uptake in awake rhesus monkey brain medulla after 85 mins postinjection; type: ADME, organism-based, Macaca mulatta; conditions: in vivo
[7] = Drug uptake in awake rhesus monkey brain medulla after 95 mins postinjection; type: ADME, organism-based, Macaca mulatta; conditions: in vivo
[8] = Drug uptake in awake rhesus monkey brain pons after 7.5 mins postinjection; type: ADME, organism-based, Macaca mulatta; conditions: in vivo, 0.125 h
[9] = Drug uptake in awake rhesus monkey brain pons after 25 mins postinjection; type: ADME, organism-based, Macaca mulatta; conditions: in vivo
[10] = Drug uptake in awake rhesus monkey brain pons after 65 mins postinjection; type: ADME, organism-based, Macaca mulatta; conditions: in vivo
[11] = Drug uptake in awake rhesus monkey brain pons after 75 mins postinjection; type: ADME, organism-based, Macaca mulatta; conditions: in vivo, 1.25 h
[12] = Drug uptake in awake rhesus monkey brain midbrain after 7.5 mins postinjection; type: ADME, organism-based, Macaca mulatta; conditions: in vivo, 0.125 h
[13] = Drug uptake in awake rhesus monkey brain midbrain after 25 mins postinjection; type: ADME, organism-based, Macaca mulatta; conditions: in vivo
[14] = Drug uptake in awake rhesus monkey brain midbrain after 35 mins postinjection; type: ADME, organism-based, Macaca mulatta; conditions: in vivo
[15] = Drug uptake in awake rhesus monkey brain midbrain after 55 mins postinjection; type: ADME, organism-based, Macaca mulatta; conditions: in vivo
[16] = Drug uptake in awake rhesus monkey brain midbrain after 85 mins postinjection; type: ADME, organism-based, Macaca mulatta; conditions: in vivo
[17] = Ratio of drug uptake in putamen to cerebellum in awake rhesus monkey after 45 mins postinjection; type: ADME, organism-based, Macaca mulatta; conditions: in vivo, 0.75 h
[18] = Ratio of drug uptake in caudate to cerebellum in awake rhesus monkey after 25 mins postinjection; type: ADME, organism-based, Macaca mulatta; conditions: in vivo
[19] = Drug uptake in awake rhesus monkey brain putamen after 65 mins postinjection; type: ADME, organism-based, Macaca mulatta; conditions: in vivo
[20] = Drug uptake in awake rhesus monkey brain caudate after 4.5 mins postinjection; type: ADME, organism-based, Macaca mulatta, Caudate nucleus; conditions: in vivo, 0.075 h
[21] = Drug uptake in awake rhesus monkey brain caudate after 10.5 mins postinjection; type: ADME, organism-based, Macaca mulatta, Caudate nucleus; conditions: in vivo, 0.175 h
[22] = Drug uptake in awake rhesus monkey brain caudate after 13.5 mins postinjection; type: ADME, organism-based, Macaca mulatta, Caudate nucleus; conditions: in vivo, 0.225 h
[23] = Drug uptake in awake rhesus monkey brain caudate after 55 mins postinjection; type: ADME, organism-based, Macaca mulatta, Caudate nucleus; conditions: in vivo
[24] = Drug uptake in awake rhesus monkey brain caudate after 85 mins postinjection; type: ADME, organism-based, Macaca mulatta, Caudate nucleus; conditions: in vivo
[25] = Drug uptake in awake rhesus monkey brain caudate after 95 mins postinjection; type: ADME, organism-based, Macaca mulatta, Caudate nucleus; conditions: in vivo
[26] = Ratio of drug uptake in pons to cerebellum in awake rhesus monkey after 7.5 mins postinjection; type: ADME, organism-based, Macaca mulatta; conditions: in vivo, 0.125 h
[27] = Drug uptake in awake rhesus monkey brain thalamus after 65 mins postinjection; type: ADME, organism-based, Macaca mulatta; conditions: in vivo
[28] = Ratio of drug uptake in frontal lobe to cerebellum in awake rhesus monkey after 35 mins postinjection; type: ADME, organism-based, Macaca mulatta; conditions: in vivo
[29] = Ratio of drug uptake in medulla to cerebellum in awake rhesus monkey after 4.5 mins postinjection; type: ADME, organism-based, Macaca mulatta; conditions: in vivo, 0.075 h
[30] = Drug uptake in awake rhesus monkey brain cerebellum after 25 mins postinjection; type: ADME, organism-based, Macaca mulatta; conditions: in vivo
[31] = Ratio of drug uptake in midbrain to cerebellum in awake rhesus monkey after 85 mins postinjection; type: ADME, organism-based, Macaca mulatta; conditions: in vivo
[32] = Drug uptake in anesthetized cynomolgus monkey brain occipital lobe after 197.5 mins postinjection; type: ADME, organism-based, Macaca fascicularis; conditions: in vivo
[33] = Drug uptake in anesthetized cynomolgus monkey brain frontal lobe after 187.5 mins postinjection; type: ADME, organism-based, Macaca fascicularis; conditions: in vivo, 3.125 h
Putamen [34] = experiment: Drug uptake in anesthetized cynomolgus monkey brain putamen after 182.5 mins postinjection; type: ADME, organism-based, Macaca fascicularis; conditions: in vivo
Putamen [35] = experiment: Drug uptake in anesthetized cynomolgus monkey brain putamen after 187.5 mins postinjection; type: ADME, organism-based, Macaca fascicularis; conditions: in vivo, 3.125 h
Putamen [36] = experiment: Drug uptake in anesthetized cynomolgus monkey brain putamen after 192.5 mins postinjection; type: ADME, organism-based, Macaca fascicularis; conditions: in vivo
Putamen [37] = experiment: Drug uptake in anesthetized cynomolgus monkey brain putamen after 202.5 mins postinjection; type: ADME, organism-based, Macaca fascicularis; conditions: in vivo, 3.375 h
Putamen [38] = experiment: Drug uptake in anesthetized cynomolgus monkey brain putamen after 207.5 mins postinjection; type: ADME, organism-based, Macaca fascicularis; conditions: in vivo
Midbrain [39] = experiment: Drug uptake in anesthetized cynomolgus monkey brain midbrain after 182.5 mins postinjection; type: ADME, organism-based, Macaca fascicularis; conditions: in vivo
Midbrain [40] = experiment: Drug uptake in anesthetized cynomolgus monkey brain midbrain after 187.5 mins postinjection; type: ADME, organism-based, Macaca fascicularis; conditions: in vivo, 3.125 h
Midbrain [41] = experiment: Drug uptake in anesthetized cynomolgus monkey brain midbrain after 192.5 mins postinjection; type: ADME, organism-based, Macaca fascicularis; conditions: in vivo
Midbrain [42] = experiment: Drug uptake in anesthetized cynomolgus monkey brain midbrain after 202.5 mins postinjection; type: ADME, organism-based, Macaca fascicularis; conditions: in vivo, 3.375 h
Midbrain [43] = experiment: Drug uptake in anesthetized cynomolgus monkey brain midbrain after 207.5 mins postinjection; type: ADME, organism-based, Macaca fascicularis; conditions: in vivo
Pons [44] = experiment: Drug uptake in anesthetized cynomolgus monkey brain pons after 182.5 mins postinjection; type: ADME, organism-based, Macaca fascicularis; conditions: in vivo
Pons [45] = experiment: Drug uptake in anesthetized cynomolgus monkey brain pons after 187.5 mins postinjection; type: ADME, organism-based, Macaca fascicularis; conditions: in vivo, 3.125 h
Pons [46] = experiment: Drug uptake in anesthetized cynomolgus monkey brain pons after 192.5 mins postinjection; type: ADME, organism-based, Macaca fascicularis; conditions: in vivo
Pons [47] = experiment: Drug uptake in anesthetized cynomolgus monkey brain pons after 197.5 mins postinjection; type: ADME, organism-based, Macaca fascicularis; conditions: in vivo
Pons [48] = experiment: Drug uptake in anesthetized cynomolgus monkey brain pons after 202.5 mins postinjection; type: ADME, organism-based, Macaca fascicularis; conditions: in vivo, 3.375 h
Pons [49] = experiment: Drug uptake in anesthetized cynomolgus monkey brain pons after 207.5 mins postinjection; type: ADME, organism-based, Macaca fascicularis; conditions: in vivo
Medulla [50] = experiment: Drug uptake in anesthetized cynomolgus monkey brain medulla after 182.5 mins postinjection; type: ADME, organism-based, Macaca fascicularis; conditions: in vivo
Medulla [51] = experiment: Drug uptake in anesthetized cynomolgus monkey brain medulla after 187.5 mins postinjection; type: ADME, organism-based, Macaca fascicularis; conditions: in vivo, 3.125 h
Medulla [52] = experiment: Drug uptake in anesthetized cynomolgus monkey brain medulla after 192.5 mins postinjection; type: ADME, organism-based, Macaca fascicularis; conditions: in vivo
[53] = Drug uptake in anesthetized cynomolgus monkey brain cerebellum after 182.5 mins postinjection; type: ADME, organism-based, Macaca fascicularis; conditions: in vivo
[54] = Drug uptake in anesthetized cynomolgus monkey brain cerebellum after 192.5 mins postinjection; type: ADME, organism-based, Macaca fascicularis; conditions: in vivo
[55] = Drug uptake in anesthetized cynomolgus monkey brain cerebellum after 197.5 mins postinjection; type: ADME, organism-based, Macaca fascicularis; conditions: in vivo
[56] = Drug uptake in anesthetized cynomolgus monkey brain cerebellum after 202.5 mins postinjection; type: ADME, organism-based, Macaca fascicularis; conditions: in vivo, 3.375 h
[57] = Drug uptake in anesthetized cynomolgus monkey brain cerebellum after 207.5 mins postinjection; type: ADME, organism-based, Macaca fascicularis; conditions: in vivo
Caudate [58] = experiment: Drug uptake in anesthetized cynomolgus monkey brain caudate after 182.5 mins postinjection; type: ADME, organism-based, Macaca fascicularis, Caudate nucleus; conditions: in vivo
Caudate [59] = experiment: Drug uptake in anesthetized cynomolgus monkey brain caudate after 202.5 mins postinjection; type: ADME, organism-based, Macaca fascicularis, Caudate nucleus; conditions: in vivo, 3.375 h
Caudate [60] = experiment: Drug uptake in anesthetized cynomolgus monkey brain caudate after 207.5 mins postinjection; type: ADME, organism-based, Macaca fascicularis, Caudate nucleus; conditions: in vivo
Thalamus [61] = experiment: Drug uptake in anesthetized cynomolgus monkey brain thalamus after 182.5 mins postinjection; type: ADME, organism-based, Macaca fascicularis; conditions: in vivo
Thalamus [62] = experiment: Drug uptake in anesthetized cynomolgus monkey brain thalamus after 187.5 mins postinjection; type: ADME, organism-based, Macaca fascicularis; conditions: in vivo, 3.125 h
Thalamus [63] = experiment: Drug uptake in anesthetized cynomolgus monkey brain thalamus after 197.5 mins postinjection; type: ADME, organism-based, Macaca fascicularis; conditions: in vivo
Thalamus [64] = experiment: Drug uptake in anesthetized cynomolgus monkey brain thalamus after 207.5 mins postinjection; type: ADME, organism-based, Macaca fascicularis; conditions: in vivo

O=C(OCC[18F])C1C2CCC(CC1c1ccc(/C=C\I)cc1)N2 (centres undefined)
Drug uptake [1]: 1.57 | Drug uptake [2]: 2.16 | Drug uptake [3]: 2.25 | Drug uptake [4]: 1.79 | Drug uptake [5]: 2.48 | Drug uptake [6]: 2.66 | Drug uptake [7]: 2.35 | Drug uptake [8]: 1.24 | Drug uptake [9]: 2.29 | Drug uptake [10]: 2.49 | Drug uptake [11]: 2.75 | Drug uptake [12]: 1.35 | Drug uptake [13]: 2.46 | Drug uptake [14]: 2.7 | Drug uptake [15]: 2.76 | Drug uptake [16]: 2.99 | Ratio [17]: 1.6 | Ratio [18]: 1.3 | Drug uptake [19]: 3.31 | Drug uptake [20]: 1.17 | Drug uptake [21]: 1.73 | Drug uptake [22]: 1.87 | Drug uptake [23]: 3.11 | Drug uptake [24]: 3.27 | Drug uptake [25]: 3.19 | Ratio [26]: 0.9 | Drug uptake [27]: 3.48 | Ratio [28]: 1 | Ratio [29]: 1.3 | Drug uptake [30]: 2.12 | Ratio [31]: 1.6

O=C(OCCC[18F])C1C2CCC(CC1c1cccc(/C=C\Br)c1)N2 (centres undefined)
Drug uptake [32]: 2.91 | Drug uptake [33]: 2.39 | Drug uptake (Putamen [34]): 4.09 | Drug uptake (Putamen [35]): 3.87 | Drug uptake (Putamen [36]): 3.92 | Drug uptake (Putamen [37]): 3.82 | Drug uptake (Putamen [38]): 3.65 | Drug uptake (Midbrain [39]): 4.79 | Drug uptake (Midbrain [40]): 4.65 | Drug uptake (Midbrain [41]): 4.52 | Drug uptake (Midbrain [42]): 4.46 | Drug uptake (Midbrain [43]): 4.46 | Drug uptake (Pons [44]): 3.71 | Drug uptake (Pons [45]): 3.85 | Drug uptake (Pons [46]): 3.48 | Drug uptake (Pons [47]): 3.36 | Drug uptake (Pons [48]): 3.68 | Drug uptake (Pons [49]): 3.24 | Drug uptake (Medulla [50]): 4.22 | Drug uptake (Medulla [51]): 4.04 | Drug uptake (Medulla [52]): 3.98 | Drug uptake [53]: 2.27 | Drug uptake [54]: 2.38 | Drug uptake [55]: 2.16 | Drug uptake [56]: 2.13 | Drug uptake [57]: 1.86 | Drug uptake (Caudate [58]): 3.95 | Drug uptake (Caudate [59]): 3.64 | Drug uptake (Caudate [60]): 3.41 | Drug uptake (Thalamus [61]): 3.94 | Drug uptake (Thalamus [62]): 3.88 | Drug uptake (Thalamus [63]): 3.74 | Drug uptake (Thalamus [64]): 3.35
